{
  "source": "paper PMC3777193",
  "about": "“Diaryl- and triaryl-pyrrole derivatives: inhibitors of the MDM2–p53 and MDMX–p53 protein–protein interactions” (Medchemcomm, 2013)",
  "key": {"MDM2–p53": {"target": "MDM2–p53 (Homo sapiens, UniProt Q00987)", "sequence (Q00987 whole entry)": "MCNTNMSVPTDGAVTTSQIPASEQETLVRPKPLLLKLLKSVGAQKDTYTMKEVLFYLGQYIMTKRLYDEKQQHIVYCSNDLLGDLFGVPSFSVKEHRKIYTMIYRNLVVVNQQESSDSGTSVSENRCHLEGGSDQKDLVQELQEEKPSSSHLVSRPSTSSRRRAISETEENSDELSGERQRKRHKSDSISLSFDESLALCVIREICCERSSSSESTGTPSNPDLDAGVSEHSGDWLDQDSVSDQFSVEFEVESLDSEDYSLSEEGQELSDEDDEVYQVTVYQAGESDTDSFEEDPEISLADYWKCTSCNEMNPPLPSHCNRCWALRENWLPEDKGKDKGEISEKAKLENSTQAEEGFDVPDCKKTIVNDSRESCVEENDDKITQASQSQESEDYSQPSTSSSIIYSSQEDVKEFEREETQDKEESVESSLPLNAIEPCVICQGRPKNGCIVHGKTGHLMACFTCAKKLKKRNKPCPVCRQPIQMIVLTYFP", "test": "MDM2–p53 ELISA protein–protein binding assay"}, "MDMX–p53": {"target": "T1, MDMX–p53 (Homo sapiens, UniProt O15151)", "T1 construct": "host or cells: in vitro coupled T7 transcription and rabbit reticulocyte lysate translation", "T1 sequence (O15151 1-490)": "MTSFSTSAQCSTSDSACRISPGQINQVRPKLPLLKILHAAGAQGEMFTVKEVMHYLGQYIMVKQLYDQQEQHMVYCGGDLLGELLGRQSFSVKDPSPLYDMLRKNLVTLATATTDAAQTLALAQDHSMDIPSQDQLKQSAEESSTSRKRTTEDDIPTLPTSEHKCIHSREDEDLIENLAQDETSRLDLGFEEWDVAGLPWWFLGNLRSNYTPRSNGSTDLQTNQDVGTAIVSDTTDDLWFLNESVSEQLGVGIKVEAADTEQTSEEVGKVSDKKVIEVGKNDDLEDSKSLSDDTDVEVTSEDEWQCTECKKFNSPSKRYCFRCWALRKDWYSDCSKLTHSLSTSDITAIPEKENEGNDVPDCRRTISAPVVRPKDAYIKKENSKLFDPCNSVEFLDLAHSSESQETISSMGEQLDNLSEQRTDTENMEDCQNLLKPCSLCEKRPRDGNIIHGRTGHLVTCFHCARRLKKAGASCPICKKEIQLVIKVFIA", "test": "MDMX–p53 ELISA binding assay", "conditions": "for IC50: read-out: MDMX IC50"}, "[1]": {"test": "Growth inhibitory activity, A2708 (Table S3)", "assay_type": "cell-based", "conditions": "read-out: GI50 A2708", "description": "(§1) (2 pictures or pasted objects on this page, not shown here)"}, "A2780-CP70": {"tested_on": "A2780-CP70", "test": "Growth inhibitory activity, A2780-CP70 (Table S3)", "assay_type": "cell-based", "conditions": "A2780/CP70, read-out: GI50 A2780-CP70", "description": "as §1"}, "HCT116": {"tested_on": "HCT116", "test": "Growth inhibitory activity, HCT116 (Table S3)", "assay_type": "cell-based", "conditions": "Homo sapiens, HCT-116, read-out: GI50 HCT116", "description": "as §1"}, "HCT116 p53(-/-)": {"tested_on": "HCT116 p53(-/-)", "test": "Growth inhibitory activity, HCT116 p53(-/-) (Table S3)", "assay_type": "cell-based", "conditions": "Homo sapiens, HCT-116, read-out: GI50 HCT116 p53(-/-)", "description": "as §1"}, "SJSA-1": {"tested_on": "SJSA-1", "test": "Growth inhibitory activity, SJSA-1", "conditions": "Homo sapiens, SJSA-1, read-out: GI50 SJSA-1", "experimental": "Growth inhibitory activity was determined for selected pyrroles in a panel of cell lines with defined MDM2, MDMX and p53 status (Table 5)."}, "SJSA-1 cells": {"tested_on": "SJSA-1 cells", "assay_type": "cell-based", "conditions": "SJSA-1 (MDM2 amplified, p53wt), 5 μM, 4 h"}, "A2780 cells": {"tested_on": "A2780 cells", "assay_type": "cell-based", "conditions": "A2780 (p53wt), 0.1, 0.2 and 5 μM, 4 h"}, "A2780CP70 cells": {"tested_on": "A2780CP70 cells", "assay_type": "cell-based", "conditions": "A2780 CP70 (p53 mutant), 0.1, 0.2 and 5 μM, 4 h"}, "[2]": {"conditions": "Table 3, n = 3 (b n = 5), read-out: MDM2 IC50"}},
  "note": "Like-named read-outs stand apart in the source and are kept apart here.",
  "data": [
    {"smiles": "CCOC(=O)c1ccc(-n2c(-c3ccccc3)cc(C=C3C(=O)NC(=S)NC3=O)c2-c2ccccc2)cc1", "note": "[Compound 4k]", "values": [
      {"measurement": "IC50", "setting": "MDM2–p53; read-out: MDM2 IC50", "value": "0.7 ± 0.02", "unit": "µM"}
    ]},
    {"smiles": "O=C1NC(=S)NC(=O)C1=Cc1cc(-c2ccccc2)n(-c2ccc(Br)cc2)c1C1CC1", "note": "[Compound 11e]", "values": [
      {"measurement": "IC50", "setting": "MDM2–p53; read-out: MDM2 IC50", "value": "1.6 ± 1.6", "unit": "µM"},
      {"measurement": "IC50", "setting": "MDMX–p53", "value": 3430, "unit": "µM"}
    ]},
    {"smiles": "O=C1NC(=S)NC(=O)C1=Cc1cc(-c2ccccc2)n(-c2ccc(Cl)cc2)c1C1CC1", "note": "[Compound 11d]", "values": [
      {"measurement": "IC50", "setting": "MDM2–p53; read-out: MDM2 IC50", "value": "1.6 ± 1.7", "unit": "µM"},
      {"measurement": "IC50", "setting": "MDMX–p53", "value": 3490, "unit": "µM"}
    ]},
    {"smiles": "CN1C(=O)C(=Cc2cc(-c3ccccc3)n(-c3ccc(Cl)cc3)c2-c2ccccc2)C(=O)N(C)C1=S", "note": "[Compound 4g]", "values": [
      {"measurement": "MDM2-p53 IC50", "setting": "MDM2–p53", "value": "Insol."},
      {"measurement": "MDM2 IC50", "setting": "MDM2–p53", "value": "Insol."}
    ]},
    {"smiles": "CCN1C(=O)C(=Cc2cc(-c3ccccc3)n(-c3ccc(Cl)cc3)c2-c2ccccc2)C(=O)N(CC)C1=S", "note": "[Compound 4u]", "values": [
      {"measurement": "fold less potent against MDM2 compared with unsubstituted analogues", "setting": "MDM2–p53", "value": "3–4 fold"},
      {"measurement": "IC50", "setting": "MDM2–p53; read-out: MDM2 IC50", "value": "0.3 ± 0.12", "unit": "µM"}
    ]},
    {"smiles": "O=C1NC(=S)NC(=O)C1=Cc1cc(C2CC2)n(-c2ccc(Cl)cc2)c1-c1ccccc1", "note": "[Compound 11f]", "values": [
      {"measurement": "IC50", "setting": "MDM2–p53; read-out: MDM2 IC50", "value": "2.1 ± 2.7", "unit": "µM"},
      {"measurement": "IC50", "setting": "MDMX–p53", "value": 4920, "unit": "µM"}
    ]},
    {"smiles": "COC(=O)C(=Cc1cc(-c2ccccc2)n(-c2ccc(Cl)cc2)c1-c1ccccc1)C(=O)OC", "note": "[Compound 10a]", "values": [
      {"measurement": "activity against MDM2–p53 in words", "setting": "MDM2–p53", "value": "essentially inactive"},
      {"measurement": "IC50", "setting": "MDM2–p53; [2]", "value": "> 50", "unit": "µM"},
      {"measurement": "IC50", "setting": "MDMX–p53; Table 3, n = 3 (c n = 1)", "value": "> 50", "unit": "µM"}
    ]},
    {"smiles": "Cc1cc(C=C2C(=O)N(c3ccccc3)C(=S)N(c3ccccc3)C2=O)c(C)n1-c1ccc(Br)cc1", "note": "[Compound 4h]", "values": [
      {"measurement": "IC50", "setting": "MDM2–p53; read-out: MDM2 IC50", "value": "0.199 ± 0.016", "unit": "µM"}
    ]},
    {"smiles": "Cc1cc(C=C2C(=O)NC(=S)NC2=O)c(C)n1-c1ccc(Cl)cc1", "note": "[Compound 4a]", "values": [
      {"measurement": "IC50", "setting": "MDM2–p53; read-out: MDM2 IC50", "value": "0.72 ± 0.1", "unit": "µM"},
      {"measurement": "GI50", "setting": "[1]", "value": "3.4 ± 0.2", "unit": "µM"},
      {"measurement": "GI50", "setting": "A2780-CP70", "value": "4.4 ± 0.2", "unit": "µM"},
      {"measurement": "GI50", "setting": "HCT116", "value": "8.4 ± 0.5", "unit": "µM"},
      {"measurement": "GI50", "setting": "HCT116 p53(-/-)", "value": "8.3 ± 0.4", "unit": "µM"},
      {"measurement": "GI50", "setting": "SJSA-1", "value": "3.3 ± 0.1", "unit": "µM"}
    ]},
    {"smiles": "CNC(=O)C(=Cc1cc(-c2ccccc2)n(-c2ccc(Cl)cc2)c1-c1ccccc1)C(=O)NC", "note": "[Compound 10d]", "values": [
      {"measurement": "fold loss of potency against MDM2–p53", "setting": "MDM2–p53; N-alkyl malonamides compared with 10c", "value": 3, "unit": "fold"},
      {"measurement": "IC50", "setting": "MDM2–p53; [2]", "value": "7.6 ± 0.4", "unit": "µM"},
      {"measurement": "IC50", "setting": "MDMX–p53; Table 3, n = 3 (c n = 1)", "value": 30, "unit": "µM"}
    ]},
    {"smiles": "CC(C)(C)c1ccc(-n2c(-c3ccccc3)cc(C=C3C(=O)NC(=O)NC3=O)c2-c2ccccc2)cc1", "note": "[Compound 4p]", "values": [
      {"measurement": "IC50", "setting": "MDM2–p53; read-out: MDM2 IC50", "value": "1.9 ± 0.3", "unit": "µM"}
    ]},
    {"smiles": "Cc1ccc(N2C(=O)/C(=C\\c3cc(-c4ccccc4)n(-c4ccc(Cl)cc4)c3-c3ccccc3)C(=O)N(c3ccccc3)C2=S)cc1C", "note": "[Compound 4f]", "values": [
      {"measurement": "IC50", "setting": "MDM2–p53; read-out: MDM2-p53 IC50", "value": "0.26 ± 0.04", "unit": "µM"},
      {"measurement": "IC50", "setting": "MDM2–p53; read-out: MDM2 IC50", "value": "0.256 ± 0.039", "unit": "µM"}
    ]},
    {"smiles": "O=C1NC(=S)N(c2ccccc2)C(=O)/C1=C/c1cc(-c2ccccc2)n(-c2ccc(Cl)cc2)c1-c1ccccc1", "note": "[Compound 4d]", "values": [
      {"measurement": "fold more potent than the comparable 2,5-dimethyl analogues (4a, 4b)", "setting": "MDM2–p53", "value": "5–10 fold"},
      {"measurement": "IC50", "setting": "MDM2–p53; read-out: MDM2 IC50", "value": "0.23 ± 0.044", "unit": "µM"},
      {"measurement": "induction of MDM2, p53, and p21 (Western blot)", "setting": "SJSA-1 cells", "value": "clearly visible"},
      {"measurement": "induction of MDM2 and p21 (Western blot)", "setting": "A2780 cells", "value": "observed"},
      {"measurement": "induction of MDM2, p53, and p21 (Western blot)", "setting": "A2780CP70 cells", "value": "no induction"}
    ]},
    {"smiles": "CCN1C(=O)C(=Cc2cc(-c3ccccc3)n(-c3ccc(Br)cc3)c2-c2ccccc2)C(=O)N(CC)C1=S", "note": "[Compound 4w]", "values": [
      {"measurement": "IC50", "setting": "MDM2–p53; read-out: MDM2 IC50", "value": "0.26 ± 0.05", "unit": "µM"}
    ]},
    {"smiles": "CN1C(=O)C(=Cc2cc(-c3ccccc3)n(-c3ccc(Br)cc3)c2-c2ccccc2)C(=O)NC1=S", "note": "[Compound 4z]", "values": [
      {"measurement": "IC50", "setting": "MDM2–p53", "value": "0.073 ± 0.002", "unit": "µM"}
    ]},
    {"smiles": "CCN1C(=O)C(=Cc2cc(-c3ccccc3)n(-c3ccc(Br)cc3)c2-c2ccccc2)C(=O)N(CC)C1=O", "note": "[Compound 4v]", "values": [
      {"measurement": "fold less potent against MDM2 compared with unsubstituted analogues", "setting": "MDM2–p53", "value": "3–4 fold"},
      {"measurement": "IC50", "setting": "MDM2–p53; read-out: MDM2 IC50", "value": "0.89 ± 0.04", "unit": "µM"},
      {"measurement": "inhibition at 50 µM", "setting": "MDMX–p53; read-out: MDMX % inhibition at 50 μM", "value": 74, "unit": "%"}
    ]},
    {"smiles": "CC1(C)OC(=O)C(Cc2cc(-c3ccccc3)n(-c3ccc(Br)cc3)c2-c2ccccc2)C(=O)O1", "note": "[Compound 9]", "values": [
      {"measurement": "fold less potent than 8c against MDM2–p53", "setting": "MDM2–p53", "value": 20, "unit": "fold"},
      {"measurement": "IC50", "setting": "MDM2–p53; [2]", "value": "2.9 ± 0.7", "unit": "µM"}
    ]},
    {"smiles": "Cc1ccc(-n2c(C)cc(C=C3C(=O)NC(=S)NC3=O)c2C)cc1", "note": "[Compound 4j]", "values": [
      {"measurement": "IC50", "setting": "MDM2–p53; read-out: MDM2 IC50", "value": "4.7 ± 0.2", "unit": "µM"}
    ]},
    {"smiles": "O=C1NC(=S)NC(=O)C1=Cc1cc(C2CC2)n(-c2ccc(Br)cc2)c1-c1ccccc1", "note": "[Compound 11g]", "values": [
      {"measurement": "IC50", "setting": "MDM2–p53; read-out: MDM2 IC50", "value": "2.2 ± 2.7", "unit": "µM"},
      {"measurement": "IC50", "setting": "MDMX–p53", "value": 5320, "unit": "µM"}
    ]}
  ]
}
